In experiment [1] the test system is SK-MEL-2. The experiment is described as follows: Antitumor activity against human SK-MEL-2 cells xenografted in BALB/c nude mouse assessed as tumor growth inhibition at 5 mg/kg/day, ip administered for 30 days relative to control. In kind it is functional. To be noted: SK-MEL-2, 720 h, time 30 day, read-out: TGI. On the technique in general: Xenograft models place foreign cells or tissue in a host animal.

In experiment [2] the test system is SK-MEL-2. Put plainly: Antiproliferative activity against human SK-MEL-2 cells assessed as inhibition of colony formation at 1.5 uM measured after 10 days by crystal violet staining based assay. Conditions: time 10.0 day. In kind it is functional, cell-based.
Experiment [3] has as its system SK-MEL-2. The experiment is described as follows: Synergistic cytotoxicity against human SK-MEL-2 cells expressing NRAS mutant assessed as combination index measured for 48 hrs in presence of MK2206 by MTT assay. In kind it is functional.
Experiment [4] concerns SK-MEL-2. Put plainly: Synergistic cytotoxicity against human SK-MEL-2 cells expressing NRAS mutant assessed as combination index measured for 48 hrs in presence of Rapamycin by MTT assay. In kind it is functional.
For experiment [5], the system named is SK-MEL-2. The experiment is described as follows: Antitumor activity against human SK-MEL-2 cells xenografted in BALB/c nude mouse assessed as tumor growth inhibition at 5 mg/kg/day, ip by electronic caliper method. In kind it is functional, organism-based. To be noted: time 30.0 day, TDE = time-dependent effect.
In experiment [6] the test system is SK-MEL-2. Put plainly: Antitumor activity against human SK-MEL-2 cells xenografted in BALB/c nude mouse assessed as reduction in tumor weight at 5 mg/kg/day, ip administered for 30 days by electronic caliper method. In kind it is functional, organism-based. To be noted: time 30.0 day.
The test system of experiment [7] is SK-MEL-2. The experiment is described as follows: Antitumor activity against human SK-MEL-2 cells xenografted in BALB/c nude mouse assessed as T/C ratio at 5 mg/kg/day, ip administered for 30 days relative to control. In kind it is functional. Conditions: time 30 day.

The values that follow come from ChEMBL document CHEMBL5380835, “Discovery of Clinically Used Octenidine as NRAS Repressor That Effectively Inhibits NRAS-Mutant Melanoma” (J Med Chem, 2023).

Calls of active or inactive are those of the source. No cut-off for these calls is given here.

For orientation: T/C means the result in the treated group divided by that in the control group, in per cent. In the case of `Cn1cnc2c(F)c(Nc3ccc(Br)cc3F)c(C(=O)NOCCO)cc21` [BINIMETINIB], the inhibition in vivo at 5 mg/kg/day in the experiment with SK-MEL-2 [1] came to 70.4%. The inhibition entry with SK-MEL-2 [2] was “Active”. Also, the CI in the experiment with SK-MEL-2 [3] and with SK-MEL-2 [4] was 0.5 in each case. The Activity result in the experiment with SK-MEL-2 [5] was “Tde”. In addition, the outcome in the experiment on SK-MEL-2 [6] was Active. Further, the T/C in the experiment on SK-MEL-2 [7] is given as 24.8%.
